Tests used:
[1] = placebo-controlled, randomized, double-blind, parallel-group human study of red blood cell count, hemoglobin concentration and blood taurine level; assay type: in vivo; details: male and female adults, one capsule with 20 mg L-ergothioneine per day for four weeks, pre-testing to week 4, versus control food group
Method: In order to evaluate the influence of supplements containing ergothioneine on the red blood cell count in the blood, blood hemoglobin concentration, and blood taurine level, a placebo-controlled, randomized, double-blind, parallel-group study was conducted on subjects including male and female adults (46 subjects in a test food group; 46 subjects in a control food group; 92 subjects in total). In this study, one capsule containing 20 mg ergothioneine (test food) or one capsule not containing ergothioneine (control food) was fed per day for four weeks. The red blood cell count in the blood, blood hemoglobin concentration, and blood taurine level of each subject were measured for pre-testing before starting the study (before starting ingestion of the test food or control food). After ingestion of the test food or control food for four weeks, the red blood cell count in the blood, blood hemoglobin concentration, and blood taurine level of each subject were measured again (testing on week 4). The red blood cell count in the blood and blood hemoglobin concentration were measured by known methods. […] Specifically, the amount of change in the test food group at the time of testing on week 4 was determined by subtracting the measurements (average) of the test food group at the time of pre-testing from the measurements (average) of the test food group at the time of testing on week 4. Similarly, the amount of change in the control food group at the time of testing on week 4 was determined by subtracting the measurements (average) at the time of pre-testing from the measurements (average) at the time of testing on week 4. […]

[2] = mice orally administered, versus mice not administered; cited from earlier work

C[N+](C)(C)[C@@H](Cc1c[nH]c(=S)[nH]1)C(=O)[O-] [L-ergothioneine]
change in blood hemoglobin concentration [1]: significantly increased | change in blood taurine level (CE-TOF-MS) [1]: significantly increased | change in red blood cell count in the blood [1]: significantly increased | peritesticular fat weight [2]: lower | triglyceride (neutral fat) level in plasma [2]: lower

From patent publication US20240180876A1, “COMPOSITION FOR INCREASING RED BLOOD CELLS AND/OR HEMOGLOBIN” (SUNTORY HOLDINGS LIMITED, priority 2021, published 2024)
